Source: patent US20080293746A1 (priority 2007, published 2008)

Assays:
[1] = Free plasma concentrations in the rat CCI studies; conditions: Sprague Dawley; for concentration at 2.5 h: in vivo
From the text: It is important to ascertain whether any concluded synergy observed in animals or man is due solely to pharmacokinetic interactions.

[2] = system: CCI-induced static allodynia; test: Chronic constriction injury (CCI) rat model of neuropathic pain, assessment of static allodynia (von Frey hairs, paw withdrawal threshold); assay type: in vivo
Protocol: Animals: Male Sprague Dawley rats (150-250 g at the time of surgery), obtained from Charles River, (Manston, Kent, U.K.) were housed in groups of 3. All animals were kept under a 12 hour light/dark cycle (lights on at 07 h 00 min) with food and water ad libitum. All experiments were carried out by an observer blind to the treatments and in accordance with the Home Office Animals (Scientific Procedures) Act 1986.
The CCI of sciatic nerve was performed as previously described by Bennett and Xie (Bennett G J, Xie Y K. A peripheral mononeuropathy in rat that produces disorders of pain sensation like those seen in man. Pain: 33:87-107, 1988). Animals were anaesthetised with a 2% isofluorane/O2 mixture. The right hind thigh was shaved and swabbed with 1% iodine. Animals were then transferred to a homeothermic blanket for the duration of the procedure and anaesthesia maintained during surgery via a nose cone. The skin was cut along the line of the thighbone and the common sciatic nerve was exposed Four ligatures (4-0 silk) were tied loosely around the nerve, 1 cm proximally to the trifurcation, with approx 1 mm spacing. The incision was closed in layers.
Animals were habituated to wire bottom test cages prior to the assessment of allodynia. Static allodynia was evaluated by application of calibrated von Frey hairs (Stoelting, Wood Dale, Ill., USA.) in ascending order of force (0.8, 1, 1.4, 2, 4, 6, 8, 10, 15 and 26 grams) to the plantar surface of hind paws. Each von Frey hair was applied to the paw for a maximum of 6 seconds, or until a withdrawal response occurred. Once a withdrawal response to a von Frey hair was established, the paw was re-tested, starting with the filament below the one that produced a withdrawal, and subsequently with the remaining filaments in descending force sequence until no withdrawal occurred. The highest force of 26 g lifted the paw as well as eliciting a response, thus represented the cut off point. Each animal had both hind paws tested in this manner. The lowest amount of force required to elicit a response was recorded as paw withdrawal threshold (PWT) in grams. Static allodynia was defined as present if animals responded to a stimulus of, or less than, 4 g, which is innocuous in naive rats (Field M J, Bramwell S, Hughes J, Singh L. Detection of static and dynamic components of mechanical allodynia in rat models of neuropathic pain: are they signalled by distinct primary sensory neurones? Pain, 1999; 83:303-11).

[3] = clinical; conditions: human, in vivo, po
[4] = human, in vivo, po
[5] = oral dosing, CCI-induced static allodynia, rat (FIG. 1)

Compound	concentration at 1.3 h ([1]; plasma, oral, 1 mg/kg)	concentration at 4.3 h ([1]; plasma, oral, 1 mg/kg)	effect on any allodynia endpoint ([2]; compound alone, oral dosing at 0.1 to 1 mg/kg (FIG. 2))	half-life [3]	concentration at 2.5 h ([1]; 3 mg/kg)	concentration at 2.5 h ([1]; 20 mg/kg)	dose at which a full effect is achieved [2, 5]	minimum effective dose (MED) [2, 5]	effect on static allodynia endpoints ([2]; pregabalin alone 10 mg/kg, 2 hours after dosing (FIG. 3))	steady state peak to trough ratio of plasma concentration time profile [4]
CCOCCn1nc(C(=O)NS(C)(=O)=O)c2nc(N(C)CC)nc(Nc3cc(C)ccn3)c21	≤ 0.0102 µM	≤ 0.0161 µM	no effect observed	10 to 15 h	–	–	–	–	–	–
CC(C)C[C@H](CN)CC(=O)O [pregabalin, (S)-(+)-4-amino-3-(2-methylpropyl)butanoic acid]	–	–	–	–	17.8 µM	89.8 µM	20 mg/kg	3 mg/kg	partially reversed	–
CCCc1nn(C)c2c(=O)[nH]c(-c3cc(S(=O)(=O)N4CCN(C)CC4)ccc3OCC)nc12 [sildenafil, 5-[2-ethoxy-5-(4-methyl-1-piperazinyl-sulphonyl)phenyl]-1-methyl-3-n-propyl-1,6-dihydro-7H-pyrazolo[4,3-d]pyrimidin-7-one]	–	–	–	4 h	–	–	–	–	–	~4 fold
